Reference: patent US7091238B1, “Thienylhydrazon with digitalis-like properties (positive inotropic effects)” (University of Maryland, priority 1999, dated 2006)
Entries after “also recorded” stand apart in the source; their conditions may differ.

Tests used:
tissues and organs = test: Histopathological study of tissues and organs after daily injection; type: in vivo, rat; conditions: 2 or 10 mg/kg injected daily for more than 14 days
[1] = Blood biochemistry analysis in treated mice; type: in vivo
Method: b. Rats were weighed before and after treatment with LASSBio 204. […] Six rats were examined in each group, measurements were made after 1–15 days of treatment. […] Mice were injected with LASSBio-294 and their blood examined for cell changes. Experimental groups received 2 or 10 mg/kg of drug. […] Table 4 lists blood chemistry analysis of mice treated with LASSBio-294. Experimental groups received 2 or 10 mg/kg of drug. Controls were saline and solvent. […] The low values of glucose found could be due to an artifact of the technique, glucose being a byproduct of hemolysis. […] General Method

LD 50 in dogs = type: in vivo; conditions: dog, in vivo
Method: (§1) LASSBio-294 has very low toxic effects. This was tested in whole mouse, rat, and dog models (Greaves, P. (1998) Exp. Toxicol. Pathol. 50, 283). These models are commonly used to predict toxicity in humans (Chou, W. L., Robbie G., Chung, S. M., Wu, T. C., and Ma, C. (1998) Pharm. Res. 15, 1474). […] These tests predict LASSBio-294 can be dosed in humans to achieve therapeutic plasma levels without significant risk of toxicity.

dogs = test: LD 50 in dogs; type: in vivo; conditions: dogs
Method: as §1

isolated dog hearts = test: Intraventricular and aortic pressure in isolated dog hearts under pre-load (Langendorff's method); conditions: compared to control or wash out
Description: Predictive tests can also be performed on isolated hearts of animals. Testing intraventricular and arterial pressure in isolated dog hearts, under pre-load, is an animal model for human congestive heart disease, as is well known in the art. This is called Langendorff's method. It allows examination of therapeutic strategies to treat congestive heart disease. When dog hearts were so tested, LASSBio-294 treated hearts achieved a 50% increase in intraventricular and aortic pressure compared to control or wash out after treatment. […] These tests predict that the invention has utility as a medicament in the treatment of congestive heart failure (Curtis, M. J., (1998) Cardiovasc. Res. 39, 194–21, incorporated expressly by reference herein).

single muscle fiber = test: Fatigue development in single amphibian muscle fibers under repetitive tetanic stimulation; type: cell-based, frog, rana pipiens
Method: FIG. 17. Time course of fatigue development. Fatigue was produced by 60 Hz, 0.8 sec tetanic stimulations repeated every 4.75 sec with a twitch elicited 2.2 sec after each tetanic stimulation. a) single tetanus. b) repeated tetanic stimulations. Notice the time calibration. A) In 50 μM of DMSO only B) Same as in A, but the fiber was bathed with 50 μM of compound LASSBio-294.
FIG. 28. Time (in min) for tetanic force to decrease (fatigue) to 50% of the original tetanic force during repetitive stimulations as in FIG. 17. Left column in 50 μM of DMSO only (˜6 in). Right column in 50 μM of LASSBio-294 (˜9 min).
FIG. 29. Time of recovery to 80% of the pre-fatigue tetanic force. Left column in 50 μM of DMSO only (˜90 min). Right column in 50 μM of LASSBio-294 (˜10 min).
c. […] A is 50 μM DMSO in Ringer's solution, B is 50 μM LASSBio-294. The time to fatigue in LASSBio-294-treated is approximately 50% longer than control.
The tests in amphibians were performed in isolated single muscle cells freshly isolated from either the semitendinous or the tibialis anterior muscles of the frog, rana pipiens. The isolated muscle cells were left resting for at least half an hour in Ringer's solution. The fibers were then stimulated with single, low-voltage, electric shocks. If fibers gave brisk twitches and had no signs of membrane damage, they were used. Otherwise, they were discarded. Healthy fibers were transferred to the experimental chamber, which consisted of a 0.3 ml narrow channel where the solutions could be changed several times within five seconds. One tendon of the fiber was gripped with a small clamp and the other tendon was attached to a hook of an Ekhart;s type force transducer. The stimulating electrode consisted of platinum wires placed to each side of the fiber. The muscle fibers were stretched 1.3 times their slack length to reach approximately an average sarcomere length of 1.6 μm.
The fibers were stimulated with single electric pulses of 0.5 msec duration and variable voltage. The voltage was increased until the threshold for contraction was reached. […]

[2] = Plasma concentration kinetics; type: in vivo
Method: The plasma concentration of the drug reached a maximum at that time and afterwards tapered off to control levels within 2 hours.

[3] = system: Na^+/K^+-ATPase extracted from heart muscle or gastrocnemius muscle; test: Effect on Na+/K+-ATPase; type: biochemical; conditions: enzyme from rat heart or gastrocnemius muscle
phosphodiesterase = test: Phosphodiesterase direct effect; type: biochemical
Description: Determination of phosphodiesterase direct effect was also negative.

In the case of `O=C(NN=Cc1cccs1)c1ccc2c(c1)OCO2` [LASSBio-294, 3,4-methylenedioxybenzoyl-2-thienylhydrazone], the “histopathological changes in tissues and organs” value (tissues and organs) is reported as “unaffected; also recorded: no pathological changes; also recorded: no significant histopathological changes”, the “hemoglobin, erythrocytes and blood biochemistry” value ([1]; male and female mice, long-term treatment) is reported as “values similar to control” and the blood chemistry values ([1]; mice, 2 or 10 mg/kg, controls saline and solvent) is reported as “no significant change in blood chemistry values”. For the same compound, the LD50 (LD 50 in dogs) was 1500 mg/kg, the “LD 50 relative to the effective dose” value (dogs) was > 1000 fold and the “increase in intraventricular and aortic pressure” value (isolated dog hearts) was 50%. The “time to fatigue, longer than control” value (single muscle fiber; 50 μM vs 50 μM DMSO, 60 Hz 0.8 sec tetanic stimulations) was “approximately 50%”, the “time for tetanic force to decrease (fatigue) to 50% of the original tetanic force” value (single muscle fiber; 50 μM, repetitive stimulations) was ~9 min and the “resistance to muscle fatigue” value (single muscle fiber; treated skeletal muscle fibers vs control fibers) was “increased resistance to muscle fatigue”. The “retention time (RT); time of maximum plasma concentration” value [2] was 14.59 min, the “time for plasma concentration to taper off to control levels” value [2] was ≤ 2 h and the “effect on Na^+/K^+-ATPase” value [3] was “did not affect”. The phosphodiesterase direct effect (phosphodiesterase) was “negative”.
